Experimental data reported in US10081662B2, “Modified relaxin B chain peptides” (The Florey Institute of Neuroscience and Mental Health, priority 2014, dated 2018).

Legend:
[1] = tested on: rat model of myocardial infarction; test: Rat model of myocardial infarction-induced heart failure; type: in vivo; settings: vs vehicle
Description: Adult male Sprague-Dawley rats weighing 250-320 g were obtained from Animal Resources Centre, Perth, Wash., Australia. The rats were group housed in a constant temperature of 22±1° C. and a relative humidity of 50-60% under a controlled light-dark cycle of 12 hours. Rats were given access to standard laboratory rat chow and drinking water ad libitum.
Heart failure was induced as previously described (Ruchaya et al., 2014, Exp Physiol 99, 111-122). Breifly, to induce heart failure, rats were anaesthetised with an intramuscular injection of ketamine (60 mg/kg) and medetomide hydrochloride ([…]). A left sided thoracotomy through an opening between the fourth and fifth rib was performed, the heart was exteriorised and the left anterior descending coronary artery was ligated. Anaesthesia was reversed with antipamezole hydrocholide (1 mg/kg). Penicillin (1000 U) and buprenorphine (0.05 mg/kg) was administered to aid post-operative recovery. Animals were left to recover from the surgery under a heating source. Rats were individually housed after the surgery.
Eight weeks after myocardial infarction surgery, rats were randomly assigned to 3 groups (vehicle, H2 and B7-33), re-anaesthetised (2-3% isoflurane) and an osmotic mini-pump (model 2ML4, Alzet, Cupertino, Calif.) implanted intraperitoneally. Vehicle (saline), native H2 relaxin (0.5 mg/kg/day) or B7-33 C11.23S (0.5 mg/kg/day) was continuously administered for 28 days. At the conclusion of treatment, rats were anaesthetized (sodium pentobarbitone, 60 mg/kg i.p.) and the left ventricular end-diastolic pressure determined prior to decapitation and removal of the heart for histological analysis.

[2] = tested on: mouse model of isoproterenol (ISO) induced cardiac fibrosis; test: Mouse model of isoproterenol-induced cardiomyopathy (cardiac fibrosis); type: in vivo; settings: 129SV mice, 14 days, s.c. minipump; relative to isoproterenol treatment
From the text: (§1) Seven to eight-week old male 129SV mice (which are sensitive to tissue injury and fibrosis) and age-matched female Balb/c mice (which are sensitive to changes in airway hyperresponsiveness) were used for the induction of isoproterenol-induced cardiomyopathy and ovalbumin-induced chronic allergic airways disease, respectively. 16 five week-old male C57BL/6 mice were used in the induction of prostate cancer growth. All animals were obtained from Monash Animal Services (Monash University, Clayton, Victoria, Australia) and housed under standard conditions (maintained on an 12 h light-12 h dark lighting cycle with free access to food and water) in the Department of Pharmacology Animal Room at Monash University.
(§2) The mid zone of the male mouse heart and largest lung lobe from female Balb/c mice were fixed in 10% neutral buffered formalin for 24-48 h before being processed and embedded routinely in paraffin wax. Representative sections of tissue, 3-5 um each, were taken and stained with either picrosirius red (Samuel et al. 2011 Lab Invest 91, 675-690) for the detection of interstitial collagen or Masson's trichrome (Royce et al, 2009, Endocrinology 150, 2692-2699) for the detection of subepithelial basement membrane collagen deposition).
(§3) Changes in picrosirius-red stained interstitial collagen or epithelial thickness and subepithelial collagen (fibrosis) around the airway lumen from Masson's trichrome-stained sections; which were all captured (at ×20 magnification) using a SPOT digital camera (Q Imaging, Burnaby, BC, Canada) and analysed with Image J 1.3 software (National Institutes of Health, Bethesda, Md.). Four to five fields per mid zone of the heart or 4-5 airways (of 150-350 μm in diameter) per mouse were assessed. Epithelial thickness and subepithelial collagen regions were traced with a digital pen and the thickness of each region calculated by the imaging software. Results were expressed as mean thickness ([…]) of the 4-5 airways sampled.
The apical region of the heart or second largest lung lobe from each mouse was treated as described previously (Samuel C S, et at., 2003, FASEB J 17, 121-123; Royce et at. 2009, Endocrinology 150, 2692-2699) for the determination of hydroxyproline content. Hydroxyproline values were estimated based on a standard curve constructed with serial dilutions of a 0.1 mg/mL stock of trans-4-hydroxyproline-L-proline (Sigma-Aldrich). Hydroxyproline values were then converted to collagen content as detailed previously (Samuel CS, et al. 2004. Endocrinology 145, 4125-4133) and, in turn, divided by the dry weight of each corresponding left ventricular or lung tissue assessed to yield collagen concentration (a measure of fibrosis). […]

[3] = tested on: mouse model of OVA-induced chronic allergic airway disease; test: Mouse model of OVA-induced chronic allergic airway disease; type: in vivo; settings: Balb/c mice
From the text: as §1
Twenty-four hours after the last vehicle/drug administration, methacholine-induced airway reactivity was assessed by invasive plethysmography as described before (Locke et al. 2007, Am J Respir Mol Biol 36, 625-632; Royce et al. 2009, Endocrinology 150, 2692-2699). Mice were anaesthetized intraperitoneally with 200 μg/g ketamine and 10 μg/g xylazine. Tracheotomy was performed using an 18-gauge tracheotomy tube and jugular vein cannulated with a 0.61 9 0.28 mm polyethylene tube (Microtube Extrusions, North Rocks, NSW, Australia), Mice were then placed in a plethysmograph chamber (Buxco Research Systems, Wilmington, N.C., USA) where increasing concentrations of acetyl-β-methacholine (from 31.25 μg/kg to 500 μg/kg) were delivered intravenously in five doses. After every dose, airway resistance and compliance were measured (Biosystem XA version 2.7.9; Buxco Electronics Inc, Wilmington, N.C., USA). The change in airway resistance calculated by the maximal resistance after each dose minus baseline resistance (phosphate buffered saline alone) was plotted against each dose of methacholine evaluated.
as §2, §3
The apical region of the heart or second largest lung lobe from each mouse was treated as described previously (Samuel C S, et at., 2003, FASEB J 17, 121-123; Royce et at. 2009, Endocrinology 150, 2692-2699) for the determination of hydroxyproline content. Hydroxyproline values were estimated based on a standard curve constructed with serial dilutions of a 0.1 mg/mL stock of trans-4-hydroxyproline-L-proline (Sigma-Aldrich). Hydroxyproline values were then converted to collagen content as detailed previously (Samuel CS, et al. 2004. Endocrinology 145, 4125-4133) and, in turn, divided by the dry weight of each corresponding left ventricular or lung tissue assessed to yield collagen concentration (a measure of fibrosis).
The inventors also tested the fibrosis preventing activity of B7-33 C11.23S in a model of chronic allergic airway disease (AAD). […]

[4] = tested on: RM1 mouse prostate tumour cells; test: Prostate tumour growth after injection of RM1 cells into prostates of C57BL/6 mice; type: in vivo; settings: day 10 after RM1 cells, s.c. mini-pump from day 2, H2 relaxin 0.15, B7-33 C11.23S 0.075 mg/kg/day, vs untreated
From the text: as §1
H2 relaxin can induce prostate and other tumour growth. To measure the effect of B7-33 C11.23S on tumour growth, 16 five week-old male C57BL/6 mice (obtained from Monash Animal Services) were injected with 5000 RM1 (mouse prostate tumor) cells into their prostates to induce tumor growth. One sub-group of mice n=5) was left untreated until day 10 post-RM1 cell administration. […]

[5] = dose printed as 0.5 mg/mg/day; Samuel et al. 2003; cited from earlier work
[6] = Solubility of relaxin B chain peptides in aqueous solution; settings: aqueous solution

Substance: H2 relaxin: Native human relaxin-2: heterodimer of A chain (24 residues) and B1-29 B chain with three disulfide bonds
- Percentage of collagen in the interstitial area of the left ventricle ([1]; 0.5 mg/kg/day i.p. mini-pump for 28 days from 8 weeks after MI): significant reduction
- Left ventricular end-diastolic pressure (LVEDP) ([1]; 12 weeks after myocardial infarction): reduced
- Percentage of interstitial collagen in the left ventricle (picrosirius red) [2]: significantly reduced
- Total left ventricular collagen concentration (hydroxyproline analysis) [2]: significantly reduced
- Airway hyper-responsiveness (change in airway resistance to methacholine) ([3]; OVA-induced increase, invasive plethysmography, FIG. 8D): attenuated
- Mean airway epithelial thickness ([3]; compared to OVA treatment, FIG. 8B): significantly reduced
- Total lung collagen content (hydroxyproline analysis) ([3]; relative to OVA treatment, FIG. 8C): normalised
- Prostate tumour size [4]: significantly increased tumour size
- Circulating levels [5]: 20 to 40 ng/mL
- Aqueous solubility (in words) [6]: very soluble
